Among the data in patent US20260092061A1, “COMPOUNDS FOR TARGETED PROTEIN DEGRADATION” (Amphista Therapeutics Limited, priority 2022, published 2026) are DC50 and Dmax values, retold here.

Molecules are shown by their SMILES.

In the experiment the target is T1, BRD9 (Homo sapiens, UniProt Q9H8M2).
T1 sequence (Q9H8M2 1-597): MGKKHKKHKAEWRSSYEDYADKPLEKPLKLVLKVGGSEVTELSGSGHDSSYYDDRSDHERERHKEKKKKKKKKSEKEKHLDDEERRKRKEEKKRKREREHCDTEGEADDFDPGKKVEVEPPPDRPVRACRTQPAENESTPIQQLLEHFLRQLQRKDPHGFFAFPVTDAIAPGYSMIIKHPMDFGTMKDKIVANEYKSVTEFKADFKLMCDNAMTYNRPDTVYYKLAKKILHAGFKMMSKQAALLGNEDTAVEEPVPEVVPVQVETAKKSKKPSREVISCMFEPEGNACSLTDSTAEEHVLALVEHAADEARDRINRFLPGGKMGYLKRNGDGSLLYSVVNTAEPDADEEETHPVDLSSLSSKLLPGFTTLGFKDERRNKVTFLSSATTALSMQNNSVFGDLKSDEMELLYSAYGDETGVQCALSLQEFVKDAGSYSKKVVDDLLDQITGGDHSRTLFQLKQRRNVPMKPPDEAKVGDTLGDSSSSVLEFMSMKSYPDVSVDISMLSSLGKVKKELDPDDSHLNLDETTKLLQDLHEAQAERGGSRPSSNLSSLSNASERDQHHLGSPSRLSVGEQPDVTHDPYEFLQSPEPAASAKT
The experiment can be described thus: Degradation of BRD9 (IF), immunofluorescence in MV4-11 cells, 24 hours (Assay Protocol 2). It counts as cell-based. More on the design: A suspension of MV4-11 cells (ATCC CRL-9591) was prepared; host or cells: MV4-11. The settings on record: BRD9 degradation; for DC50: Assay protocol 2, read-out: DC50; for Dmax: MV4-11, Assay protocol 2, read-out: Dmax. The protocol:
Assay Protocol 2—Degradation of BRD9 (IF)
A suspension of MV4-11 cells (ATCC CRL-9591) was prepared in phenol red-free assay media (IMDM Thermo Scientific 21056023+10% FBS ATCC 302025) and cells were seeded at 20,000 cells per well (45 μL) in sterile black poly-d-lysine coated 384 well plates (Greiner 781948). Compounds were prepared at 1000× final concentration in DMSO, diluted 1:100 in assay media, and 5 μL compound was added to each well of the cell plate. Cells were incubated for 24 hours at 37° C. with 5% CO2. All the following incubations for immunofluorescence staining were at room temperature. 15 μL of 16% PFA was added to each well (3.7% final concentration) and the cells were fixed for 15 min then washed twice with DPBS. Cells were permeabilised with 0.1% Triton X-100 for 10 min, Triton X-100 was removed, then blocked with 1% BSA in DPBS for 1 hour. Cells were stained with 25 μL anti-BRD9 E4Q3F antibody (CST 48306) diluted 1:25600 in 1% BSA in DPBS for 2-3 hours. Wels were washed twice with DPBS then incubated with 25 μL of 1% BSA containing a 1:1000 dilution of Anti-rabbit Alexa Fluor™ 647 secondary antibody (Thero Scientific A21244) and 1 μg/mL Hoechst nuclear counter stain (Abcam ab228551) for 1 hour. Wells were washed twice with DPBS prior to imaging on a Perkin Elmer Operetta CLS with 10× air lens. Images were processed using Harmony High-Content Imaging and Analysis Software (Perkin Elmer) and the mean contrast ratio of Alexa Fluor™ 647 in central nuclei was used to quantify BRD9 protein levels. Data was further analysed using Dotmatics software and % BRD9 remaining was calculated by normalisation to average data from high and low control wells (cells treated with DMSO or 100 nM CFT-8634 respectively).

As to `COc1cc(-c2cn(C)c(=O)c(C)c2C)cc(OC)c1CN1CCN(Cc2cccc3c2CCN(C(=O)/C(C#N)=C/C(C)(C)C)C3C)C2CC21` (mixture of isomers) [Compound B148, (E/Z)-2-(5-((5-(2,6-dimethoxy-4-(1,4,5-trimethyl-6-oxo-1,6-dihydropyridin-3-yl)benzyl)-2,5-diazabicyclo[4.1.0]heptan-2-yl)methyl)-1-methyl-1,2,3,4-tetrahydroisoquinoline-2-carbonyl)-4,4-dimethylpent-2-enenitrile], the DC50 (commonly the concentration at which degradation of the target reaches its halfway point) fell in the range of 0.00125 to 0.01 µM and the greatest degradation seen (Dmax) (in general, the largest share of the target that was removed) fell in the range of 40 to 70%.

In the case of `COc1cc(-c2cn(C)c(=O)c(C)c2C)cc(OC)c1CN1CCN(Cc2ccc3c(c2)[C@@H](C)N(C(=O)/C(C#N)=C/C(C)(C)O)CC3)C2(CC2)C1` (single isomer, unassigned) [Compound C39, (E/Z)-2-(7-((7-(2,6-dimethoxy-4-(1,4,5-trimethyl-6-oxo-1,6-dihydropyridin-3-yl)benzyl)-4,7-diazaspiro[2.5]octan-4-yl)methyl)-1-methyl-1,2,3,4-tetrahydroisoquinoline-2-carbonyl)-4-hydroxy-4-methylpent-2-enenitrile], the DC50 was < 0.00125 µM and the Dmax was > 75%.

Consider `COc1cc(-c2cn(C)c(=O)c(C)c2C)cc(OC)c1CN1CCN(Cc2ccc3c(c2)[C@@H](C)N(C(=O)/C(C#N)=C/C(C)(C)CO)CC3)C2(CC2)C1` (single isomer, unassigned) [Compound C41, (E/Z)-2-(7-((7-(2,6-dimethoxy-4-(1,4,5-trimethyl-6-oxo-1,6-dihydropyridin-3-yl)benzyl)-4,7-diazaspiro[2.5]octan-4-yl)methyl)-1-methyl-1,2,3,4-tetrahydroisoquinoline-2-carbonyl)-5-hydroxy-4,4-dimethylpent-2-enenitrile], for which the DC50 is 0.00125 to 0.01 µM and the maximal degradation (Dmax) was > 75%.

Turning to `COc1cnc(F)c(/C=C(\C#N)C(=O)N2CCc3c(CN4CCN(Cc5c(OC)cc(-c6cn(C)c(=O)c(C)c6C)cc5OC)CC4)cccc3C2C)c1` (mixture of isomers) [Compound B75, (E/Z)-2-(5-((4-(2,6-dimethoxy-4-(1,4,5-trimethyl-6-oxo-1,6-dihydropyridin-3-yl)benzyl)piperazin-1-yl)methyl)-1-methyl-1,2,3,4-tetrahydroisoquinoline-2-carbonyl)-3-(2-fluoro-5-methoxypyridin-3-yl)acrylonitrile], the DC50 was in the range of 0.00125 to 0.01 µM and the maximal degradation (Dmax) fell in the range of 40 to 70%.

Consider `COc1cc(-c2cn(C)c(=O)c(C)c2C)cc(OC)c1CN1CCN(C(=O)CCCCOc2ccc(C3CCCN3C(=O)/C(C#N)=C/c3nccs3)cc2)CC1` (mixture of isomers) [Compound B82], for which the 50% degradation concentration (DC50) was 0.025 to 1 µM and the Dmax was in the range of 40 to 70%.

Regarding `COc1cc(-c2cn(C)c(=O)c(C)c2C)cc(OC)c1CN1CCN(Cc2cccc3c2CCN(C(=O)/C(C#N)=C/C2CCCC2)C3C)CC1` (mixture of isomers) [Compound B90, (E/Z)-3-cyclopentyl-2-(5-((4-(2,6-dimethoxy-4-(1,4,5-trimethyl-6-oxo-1,6-dihydropyridin-3-yl)benzyl)piperazin-1-yl)methyl)-1-methyl-1,2,3,4-tetrahydroisoquinoline-2-carbonyl)acrylonitrile], the 50% degradation concentration (DC50) was 0.01 to 0.025 µM and the maximal degradation (Dmax) was in the range of 40 to 70%.

On to `COc1cc(-c2cn(C)c(=O)c(C)c2C)cc(OC)c1CN1CCCN(c2ccc3c(c2)[C@H](C)N(C(=O)/C(C#N)=C/C(C)(C)CF)CC3)CC1` (mixture of isomers) [Compound C68, (E/Z)-2-(7-(4-(2,6-dimethoxy-4-(1,4,5-trimethyl-6-oxo-1,6-dihydropyridin-3-yl)benzyl)-1,4-diazepan-1-yl)-1-methyl-1,2,3,4-tetrahydroisoquinoline-2-carbonyl)-5-fluoro-4,4-dimethylpent-2-enenitrile], for which the half-maximal degradation concentration (DC50) was 0.025 to 1 µM and the Dmax was 40 to 70%.

Turning to `COc1cc(-c2cn(C)c(=O)c(C)c2C)cc(OC)c1CN1CCN(Cc2ccc3c(c2)[C@@H](C)N(C(=O)/C(C#N)=C/C(C)(C)CF)CC3)C2(CC2)C1` (single isomer, unassigned) [Compound B202, (E/Z)-2-(7-((7-(2,6-dimethoxy-4-(1,4,5-trimethyl-6-oxo-1,6-dihydropyridin-3-yl)benzyl)-4,7-diazaspiro[2.5]octan-4-yl)methyl)-1-methyl-1,2,3,4-tetrahydroisoquinoline-2-carbonyl)-5-fluoro-4,4-dimethylpent-2-enenitrile], the DC50 was < 0.00125 µM and the Dmax was > 75%.

As to `COc1cc(-c2cn(C)c(=O)c(C)c2C)cc(OC)c1CN1C2CC1CN(C(=O)/C(C#N)=C/C1(F)CC1)C2` (mixture of isomers) [Compound B189, (E/Z)-2-(6-(2,6-dimethoxy-4-(1,4,5-trimethyl-6-oxo-1,6-dihydropyridin-3-yl)benzyl)-3,6-diazabicyclo[3.1.1]heptane-3-carbonyl)-3-(1-fluorocyclopropyl)acrylonitrile], the DC50 is 0.00125 to 0.01 µM and the maximal degradation (Dmax) is > 75%.

For the compound `COc1cc(-c2cn(C)c(=O)c(C)c2C)cc(OC)c1CN1CCC(Cc2cccc3c2CCN(C(=O)/C(C#N)=C/C(C)(C)CF)C3C(C)C)CC1` (mixture of isomers) [Compound C80], the half-maximal degradation concentration (DC50) lay within 0.00125 to 0.01 µM and the Dmax was 70 to 75%.

Turning to `COc1cc(-c2cn(C)c(=O)c(C)c2C)cc(OC)c1CN1CCN(Cc2cccc3c2CCN(C(=O)/C(C#N)=C/c2cccc(Br)n2)C3C)CC12CC2` (mixture of isomers) [Compound B61, (E/Z)-3-(6-bromopyridin-2-yl)-2-(5-((4-(2,6-dimethoxy-4-(1,4,5-trimethyl-6-oxo-1,6-dihydropyridin-3-yl)benzyl)-4,7-diazaspiro[2.5]octan-7-yl)methyl)-1-methyl-1,2,3,4-tetrahydroisoquinoline-2-carbonyl)acrylonitrile], the DC50 was in the range of 0.00125 to 0.01 µM and the Dmax was > 75%.

Consider `COc1cc(-c2cn(C)c(=O)c(C)c2C)ccc1CC1CCN(Cc2cccc3c2CCN(C(=O)/C(C#N)=C/C(C)(C)C)C3C)C(C)(C)C1` (mixture of isomers) [Compound C74], for which the DC50 was in the range of 0.025 to 1 µM and the Dmax was > 75%.

With `COc1cc(-c2cn(C)c(=O)c(C)c2C)cc(OC)c1CN1CCN(Cc2cccc3c2CCN(C(=O)/C(C#N)=C\C24CC(C)(C2)C4)C3C)C2(CC2)C1` (mixture of isomers) [Compound B161, (E/Z)-2-(5-((7-(2,6-dimethoxy-4-(1,4,5-trimethyl-6-oxo-1,6-dihydropyridin-3-yl)benzyl)-4,7-diazaspiro[2.5]octan-4-yl)methyl)-1-methyl-1,2,3,4-tetrahydroisoquinoline-2-carbonyl)-3-(3-methylbicyclo[1.1.1]pentan-1-yl)acrylonitrile], the DC50 is < 0.00125 µM and the maximal degradation (Dmax) was > 75%.

Regarding `COc1cc(-c2cn(C)c(=O)c(C)c2C)cc(OC)c1CN1CC(N(C)c2ccc3c(c2)[C@H](C)N(C(=O)/C(C#N)=C/C(C)(C)C)CC3)C1` (single isomer, unassigned) [Compound C44], the 50% degradation concentration (DC50) is 0.00125 to 0.01 µM and the Dmax lay in the range of 70 to 75%.

With `COc1cc(-c2cn(C)c(=O)c(C)c2C)cc(OC)c1CN1CCN(Cc2cccc3c2CCN(C(=O)/C(C#N)=C/C2CCOCC2)C3C)CC1` (mixture of isomers) [Compound B69, (E/Z)-2-(5-((4-(2,6-dimethoxy-4-(1,4,5-trimethyl-6-oxo-1,6-dihydropyridin-3-yl)benzyl)piperazin-1-yl)methyl)-1-methyl-1,2,3,4-tetrahydroisoquinoline-2-carbonyl)-3-(tetrahydro-2H-pyran-4-yl)acrylonitrile], the DC50 lay within 0.00125 to 0.01 µM and the Dmax was 40 to 70%.
